Measurements: ChEMBL document CHEMBL3217483, “Developing novel non-hydroxamate histone deacetylase inhibitors: the chelidamic warhead” (2012)
Active and inactive are the calls of the source. The calls are words filed in the database; no cut-off is given here.

Experiments:
[1] = target: T1, Histone deacetylase (Homo sapiens) (UniProt Q13547+O15379+Q9UBN7+Q92769+Q9UQL6+Q8WUI4+Q9BY41+Q96DB2+P56524+Q9UKV0+Q969S8); experiment: Inhibition of HDAC in human U937 cells assessed as slight increase in histone H3 acetylation at 50 uM after 24 hrs by western blot analysis; assay type: cell-based; conditions: U-937
[2] = target: T1, Histone deacetylase (Homo sapiens); experiment: Inhibition of HDAC in human U937 cells assessed as slight increase in alpha tubulin acetylation at 50 uM after 24 hrs by western blot analysis; assay type: cell-based; conditions: U-937
U-937 [3] = experiment: Cell cycle arrest in human U937 cells assessed as block in S phase at 50 uM after 30 hrs by propidium iodide staining based flow cytometry; assay type: functional
U-937 [4] = experiment: Induction of granulocytic differentiation in human U937 cells assessed as CD11c positive/propidium iodide negative cells after 30 hrs by FACS analysis; assay type: functional, cell-based
U-937 [5] = experiment: Induction of granulocytic differentiation in human U937 cells assessed as CD11c positive/propidium iodide negative cells at 50 uM after 30 hrs by FACS analysis; assay type: functional
[6] = target: T1, Histone deacetylase (Homo sapiens); experiment: Inhibition of HDAC in human U937 cells assessed as increase in histone H3 acetylation at 50 uM after 24 hrs by western blot analysis; assay type: cell-based; conditions: U-937
[7] = target: T1, Histone deacetylase (Homo sapiens); experiment: Inhibition of HDAC in human U937 cells assessed as increase in alpha tubulin acetylation at 50 uM after 24 hrs by western blot analysis; assay type: cell-based; conditions: U-937
U-937 [8] = experiment: Induction of apoptosis in human U937 cells at 50 uM after 30 hrs by caspase 3-7 activation method based FACS analysis; assay type: functional
U-937 [9] = experiment: Induction of apoptosis in human U937 cells after 30 hrs by caspase 3-7 activation method based FACS analysis; assay type: functional, cell-based

SMILES	inhibition [1]	inhibition [2]	Activity (U-937 [3])	Activity (U-937 [4])	Activity (U-937 [5])	inhibition [6]	inhibition [7]	Activity (U-937 [8])	Activity (U-937 [9])
COC(=O)c1cc(OCCCSc2nc(-c3ccccc3)cc(=O)[nH]2)cc(C(=O)OC)n1	inactive	inactive	–	–	–	–	–	–	–
COC(=O)c1cc(OCCCCCCCCOc2ccc(NC(=O)Cc3ccccc3)cc2)cc(C(=O)OC)n1	inactive	inactive	Active	–	–	–	–	–	–
O=C(O)c1cc(OCCCSc2nc(-c3ccccc3)cc(=O)[nH]2)cc(C(=O)O)n1	inactive	inactive	inactive	–	–	–	–	–	–
COC(=O)c1cc(Oc2ccc(NC(=O)Cc3ccccc3)cc2)cc(C(=O)OC)n1	inactive	inactive	Active	Dose-dependent effect	<=40%	–	–	–	–
COC(=O)c1cc(OCCCCOc2ccc(NC(=O)Cc3ccccc3)cc2)cc(C(=O)OC)n1	inactive	inactive	Active	–	–	–	–	–	–
COC(=O)c1cc(OCCCCCCCOc2ccc(NC(=O)Cc3ccccc3)cc2)cc(C(=O)OC)n1	inactive	inactive	Active	–	–	–	–	–	–
O=C(O)c1cc(OCCCCCSc2nc(-c3ccccc3)cc(=O)[nH]2)cc(C(=O)O)n1	inactive	inactive	inactive	–	–	–	–	–	–
O=C(O)c1cc(OCCSc2nc(-c3ccccc3)cc(=O)[nH]2)cc(C(=O)O)n1	inactive	inactive	inactive	–	–	–	–	–	–
COC(=O)c1cc(OCCOc2ccc(NC(=O)Cc3ccccc3)cc2)cc(C(=O)OC)n1	inactive	inactive	Active	–	–	–	–	–	–
COC(=O)c1cc(OCCCCCOc2ccc(NC(=O)Cc3ccccc3)cc2)cc(C(=O)OC)n1	inactive	inactive	Active	–	–	–	–	–	–
COC(=O)c1cc(OCCCCCSc2nc(-c3ccccc3)cc(=O)[nH]2)cc(C(=O)OC)n1	–	–	<=50%	–	–	Active	Active	<=50%	Dose-dependent effect
COC(=O)c1cc(OCCCCC(=O)Nc2ccccc2)cc(C(=O)OC)n1	inactive	inactive	Active	–	–	–	–	–	–
COC(=O)c1cc(OCCCOc2ccc(NC(=O)Cc3ccccc3)cc2)cc(C(=O)OC)n1	inactive	inactive	Active	–	–	–	–	–	–
O=C(O)c1cc(OCCCCSc2nc(-c3ccccc3)cc(=O)[nH]2)cc(C(=O)O)n1	inactive	inactive	inactive	–	–	–	–	–	–
COC(=O)c1cc(OCCCCCCOc2ccc(NC(=O)Cc3ccccc3)cc2)cc(C(=O)OC)n1	inactive	inactive	Active	–	–	–	–	–	–
COC(=O)c1cc(OCCSc2nc(-c3ccccc3)cc(=O)[nH]2)cc(C(=O)OC)n1	–	–	<=50%	–	–	Active	Active	<=50%	Dose-dependent effect
COC(=O)c1cc(OCCCCSc2nc(-c3ccccc3)cc(=O)[nH]2)cc(C(=O)OC)n1	–	–	<=50%	–	–	Active	Active	<=50%	Dose-dependent effect
COC(=O)c1cc(OCc2ccc(NC(=O)Cc3ccccc3)cc2)cc(C(=O)OC)n1	inactive	inactive	Active	–	–	–	–	–	–
